Values quoted from earlier work in patent publication US7129073B2, “Regulation of neuronal function through metabotropic glutamate receptor signaling pathways” (The Rockefeller University, priority 2001, dated 2006).

Target: T1, T-cell protein-tyrosine phosphatase (TC PTP) (Homo sapiens, UniProt P17706)
T1 sequence (P17706 1-415): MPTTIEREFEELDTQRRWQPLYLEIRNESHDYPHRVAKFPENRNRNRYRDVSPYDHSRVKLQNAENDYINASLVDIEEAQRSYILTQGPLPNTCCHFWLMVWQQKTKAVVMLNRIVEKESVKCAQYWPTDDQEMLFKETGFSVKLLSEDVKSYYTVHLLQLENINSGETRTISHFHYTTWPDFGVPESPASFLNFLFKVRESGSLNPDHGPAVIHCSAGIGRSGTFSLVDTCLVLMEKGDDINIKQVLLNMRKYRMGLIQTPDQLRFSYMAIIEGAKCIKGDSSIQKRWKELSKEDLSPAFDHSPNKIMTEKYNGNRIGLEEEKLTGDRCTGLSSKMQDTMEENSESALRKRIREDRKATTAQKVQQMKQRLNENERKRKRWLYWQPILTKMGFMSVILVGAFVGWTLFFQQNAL
Conditions: cited from earlier work

In the case of [Na+].[Na+].[Na+].[O]=[V]([O-])([O-])[O-] [Na3VO4], the “effect on TC PTP-dependent change in polarization” value (50 μM Na3VO4) is listed as “inhibited” and the IC50 (FP-based direct binding assay) is listed as 4 nM.
